From patent US20100267561A1, “HERBICIDAL PYRIDAZINONE DERIVATIVES” (priority 2007, published 2010)

Experiments:
Assay in all cases: Test B pre-/postemergence plant response
Assay type in all cases: in vivo
[1] = test system: large crabgrass (Digitaria sanguinalis)
Outline: (§1)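 Visual scoring from 0 (no effect) to 100 (complete control) against untreated controls was done 13 to 15 days after greenhouse treatment. Chemicals were formulated in a surfactant-containing non-phytotoxic solvent and applied to soil preemergence or to 1- to 4-leaf (2-18 cm) plants postemergence.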

[2] = test system: common ragweed (Ambrosia elation)
Outline: as §1

[3] = test system: Russian thistle (Salsola iberica); settings: Preemergence
Outline: as §1

[4] = test system: cocklebur (Xanthium strumarium); settings: for Cocklebur plant response rating: 8 g ai/ha
Outline: as §1

[5] = test system: kochia (Kochia scoparia)
Outline: as §1

[6] = test system: goosegrass (Eleusine indica)
Outline: as §1

[7] = test system: soybean (Glycine max)
Outline: as §1

[8] = test system: woolly cupgrass (Eriochloa villosa)
Outline: as §1

[9] = test system: downy bromegrass (Bromus tectorum); settings: for Bromegrass, Downy plant response rating: 8 g ai/ha
Outline: as §1

[10] = test system: pigweed (Amaranthus retroflexus)
Outline: as §1

[11] = test system: Italian ryegrass (Lolium multiflorum)
Outline: as §1

[12] = test system: surinam grass (Brachiaria decumbens)
Outline: as §1

[13] = test system: catchweed bedstraw (Galium aparine); settings: Preemergence; for Galium plant response rating: 8 g ai/ha
Outline: as §1

[14] = test system: common (oilseed) sunflower (Helianthus annuus); settings: Preemergence
Outline: as §1

[15] = 8 g ai/ha, postemergence, 0-100 scale
[16] = Postemergence, 16 g ai/ha, scale 0 to 100
[17] = Postemergence, 31 g ai/ha, scale 0 to 100, 0 no effect, 100 complete control
[18] = Postemergence, 62 g ai/ha, scale 0 to 100, 0 no effect, 100 complete control
[19] = Preemergence, 16 g ai/ha, scale 0 to 100 (0 no effect, 100 complete control)
[20] = Preemergence, 31 g ai/ha, 0 to 100 scale, 0 no effect, 100 complete control
[21] = Preemergence, 62 g ai/ha, scale 0 to 100
[22] = Preemergence, 8 g ai/ha, scale 0 to 100
[23] = 16 g ai/ha, scale 0 to 100 (0 no effect, 100 complete control)
[24] = 31 g ai/ha, 0 to 100 scale, 0 no effect, 100 complete control
[25] = Postemergence, 31 g ai/ha, scale 0 to 100
[26] = Preemergence, 31 g ai/ha, scale 0 to 100 (0 no effect, 100 complete control)
[27] = Preemergence, 62 g ai/ha, 0 to 100 scale, 0 no effect, 100 complete control
[28] = Preemergence, 16 g ai/ha, scale 0 to 100
[29] = 16 g ai/ha, postemergence, 0-100 scale
[30] = 31 g ai/ha, scale 0 to 100 (0 no effect, 100 complete control)
[31] = 62 g ai/ha, 0 to 100 scale, 0 no effect, 100 complete control

SMILES: CCc1cc(-c2ccc(Cl)cc2)nn1-c1c(OS(C)(=O)=O)cnn(C)c1=O [Compound 39]
- Crabgrass, Large plant response rating [1, 15]: 70
- Plant response rating, Crabgrass, Large [1, 16]: 90
- Plant response rating, Crabgrass, Large [1, 17]: 98
- Plant response rating, Crabgrass, Large [1, 18]: 100
- Plant response rating, Crabgrass, Large [1, 19]: 100
- Plant response rating, Crabgrass, Large [1, 20]: 100
- Plant response rating, Crabgrass, Large [1, 21]: 100
- Crabgrass, Large plant response rating [1, 22]: 60
- Ragweed plant response rating [2, 15]: 0
- Plant response rating, Ragweed [2, 16]: 0
- Plant response rating, Ragweed [2, 17]: 0
- Plant response rating, Ragweed [2, 18]: 0
- Plant response rating, Ragweed [2, 19]: 0
- Plant response rating, Ragweed [2, 20]: 0
- Plant response rating, Ragweed [2, 21]: 0
- Ragweed plant response rating [2, 22]: 0
- Plant response rating, Russian Thistle [3, 23]: 0
- Plant response rating, Russian Thistle [3, 24]: 0
- Plant response rating, Russian Thistle ([3]; 62 g ai/ha, scale 0 to 100): 0
- Russian Thistle plant response rating ([3]; 8 g ai/ha, scale 0 to 100): 0
- Cocklebur plant response rating ([4]; postemergence, 0-100 scale): 0
- Plant response rating, Cocklebur [4, 16]: 0
- Plant response rating, Cocklebur [4, 17]: 0
- Plant response rating, Cocklebur [4, 18]: 0
- Plant response rating, Cocklebur [4, 19]: 0
- Plant response rating, Cocklebur [4, 20]: 0
- Plant response rating, Cocklebur [4, 21]: 0
- Cocklebur plant response rating ([4]; Preemergence, scale 0 to 100): 0
- Kochia plant response rating [5, 15]: 0
- Plant response rating, Kochia [5, 16]: 0
- Plant response rating, Kochia [5, 17]: 0
- Plant response rating, Kochia [5, 18]: 0
- Plant response rating, Kochia [5, 19]: 0
- Plant response rating, Kochia [5, 20]: 0
- Plant response rating, Kochia [5, 21]: 0
- Kochia plant response rating [5, 22]: 0
- Goosegrass plant response rating [6, 15]: 20
- Plant response rating, Goosegrass [6, 16]: 65
- Plant response rating, Goosegrass [6, 17]: 85
- Plant response rating, Goosegrass [6, 18]: 100
- Plant response rating, Goosegrass [6, 19]: 100
- Plant response rating, Goosegrass [6, 20]: 100
- Plant response rating, Goosegrass [6, 21]: 100
- Goosegrass plant response rating [6, 22]: 95
- Soybean plant response rating [7, 15]: 0
- Plant response rating, Soybean [7, 16]: 0
- Plant response rating, Soybean [7, 18]: 0
- Plant response rating, Soybean [7, 19]: 0
- Plant response rating, Soybean [7, 20]: 0
- Plant response rating, Soybean [7, 21]: 0
- Soybean plant response rating [7, 22]: 0
- Cupgrass, Woolly plant response rating [8, 15]: 80
- Plant response rating, Cupgrass, Woolly [8, 16]: 95
- Plant response rating, Cupgrass, Woolly [8, 17]: 100
- Plant response rating, Cupgrass, Woolly [8, 18]: 100
- Plant response rating, Cupgrass, Woolly [8, 19]: 65
- Plant response rating, Cupgrass, Woolly [8, 20]: 95
- Plant response rating, Cupgrass, Woolly [8, 21]: 98
- Cupgrass, Woolly plant response rating [8, 22]: 20
- Bromegrass, Downy plant response rating ([9]; postemergence, 0-100 scale): 5
- Plant response rating, Bromegrass, Downy [9, 16]: 10
- Plant response rating, Bromegrass, Downy [9, 17]: 45
- Plant response rating, Bromegrass, Downy [9, 18]: 80
- Plant response rating, Bromegrass, Downy [9, 19]: 70
- Plant response rating, Bromegrass, Downy [9, 20]: 85
- Plant response rating, Bromegrass, Downy [9, 21]: 85
- Bromegrass, Downy plant response rating ([9]; Preemergence, scale 0 to 100): 0
- Pigweed plant response rating [10, 15]: 0
- Plant response rating, Pigweed [10, 16]: 0
- Plant response rating, Pigweed [10, 17]: 0
- Plant response rating, Pigweed [10, 18]: 0
- Plant response rating, Pigweed [10, 19]: 0
- Plant response rating, Pigweed [10, 20]: 0
- Plant response rating, Pigweed [10, 21]: 0
- Pigweed plant response rating [10, 22]: 0
- Ryegrass, Italian plant response rating [11, 15]: 30
- Plant response rating, Ryegrass, Italian [11, 16]: 90
- Plant response rating, Ryegrass, Italian [11, 17]: 95
- Plant response rating, Ryegrass, Italian [11, 18]: 100
- Plant response rating, Ryegrass, Italian [11, 19]: 95
- Plant response rating, Ryegrass, Italian [11, 20]: 100
- Plant response rating, Ryegrass, Italian [11, 21]: 100
- Ryegrass, Italian plant response rating [11, 22]: 90
- Surinam Grass plant response rating [12, 15]: 100
- Plant response rating, Surinam Grass [12, 16]: 100
- Plant response rating, Surinam Grass [12, 18]: 100
- Plant response rating, Surinam Grass [12, 19]: 95
- Plant response rating, Surinam Grass [12, 20]: 100
- Plant response rating, Surinam Grass [12, 21]: 100
- Surinam Grass plant response rating [12, 22]: 90
- Plant response rating, Galium [13, 23]: 0
- Plant response rating, Galium [13, 24]: 0
- Plant response rating, Galium ([13]; 62 g ai/ha, scale 0 to 100): 0
- Galium plant response rating ([13]; scale 0 to 100): 0
- Plant response rating, Sunflower [14, 23]: 0
- Plant response rating, Sunflower [14, 24]: 0
- Plant response rating, Sunflower ([14]; 62 g ai/ha, scale 0 to 100): 0
- Sunflower plant response rating ([14]; 8 g ai/ha, scale 0 to 100): 0

SMILES: CCc1cc(-c2ccc(Br)cc2)nn1-c1c(O)cnn(C)c1=O [Compound 61]
- Crabgrass, Large plant response rating [1, 15]: 98
- Plant response rating, Crabgrass, Large [1, 16]: 100
- Plant response rating, Crabgrass, Large [1, 25]: 100
- Plant response rating, Crabgrass, Large [1, 18]: 100
- Plant response rating, Crabgrass, Large [1, 26]: 100
- Plant response rating, Crabgrass, Large [1, 27]: 100
- Crabgrass, Large plant response rating [1, 22]: 50
- Crabgrass, Large plant response rating [1, 28]: 95
- Ragweed plant response rating [2, 15]: 0
- Ragweed plant response rating [2, 29]: 0
- Plant response rating, Ragweed [2, 25]: 0
- Plant response rating, Ragweed [2, 18]: 0
- Plant response rating, Ragweed [2, 26]: 0
- Plant response rating, Ragweed [2, 27]: 0
- Ragweed plant response rating [2, 22]: 0
- Ragweed plant response rating [2, 28]: 0
- Plant response rating, Russian Thistle [3, 30]: 0
- Plant response rating, Russian Thistle [3, 31]: 0
- Russian Thistle plant response rating ([3]; 8 g ai/ha, scale 0 to 100): 0
- Russian Thistle plant response rating ([3]; 16 g ai/ha, scale 0 to 100): 0
- Cocklebur plant response rating ([4]; postemergence, 0-100 scale): 0
- Plant response rating, Cocklebur [4, 16]: 0
- Plant response rating, Cocklebur [4, 25]: 0
- Plant response rating, Cocklebur [4, 18]: 0
- Plant response rating, Cocklebur [4, 19]: 0
- Plant response rating, Cocklebur [4, 26]: 0
- Plant response rating, Cocklebur [4, 27]: 0
- Cocklebur plant response rating ([4]; Preemergence, scale 0 to 100): 0
- Kochia plant response rating [5, 15]: 0
- Kochia plant response rating [5, 29]: 0
- Plant response rating, Kochia [5, 25]: 35
- Plant response rating, Kochia [5, 18]: 45
- Plant response rating, Kochia [5, 26]: 0
- Plant response rating, Kochia [5, 27]: 0
- Goosegrass plant response rating [6, 15]: 98
- Goosegrass plant response rating [6, 29]: 100
- Plant response rating, Goosegrass [6, 25]: 100
- Plant response rating, Goosegrass [6, 18]: 100
- Plant response rating, Goosegrass [6, 26]: 100
- Plant response rating, Goosegrass [6, 27]: 100
- Goosegrass plant response rating [6, 22]: 80
- Goosegrass plant response rating [6, 28]: 100
- Plant response rating, Soybean [7, 26]: 0
- Plant response rating, Soybean [7, 27]: 0
- Soybean plant response rating [7, 22]: 0
- Soybean plant response rating [7, 28]: 0
- Cupgrass, Woolly plant response rating [8, 15]: 98
- Plant response rating, Cupgrass, Woolly [8, 16]: 100
- Plant response rating, Cupgrass, Woolly [8, 25]: 100
- Plant response rating, Cupgrass, Woolly [8, 18]: 100
- Plant response rating, Cupgrass, Woolly [8, 26]: 100
- Plant response rating, Cupgrass, Woolly [8, 27]: 100
- Cupgrass, Woolly plant response rating [8, 22]: 80
- Cupgrass, Woolly plant response rating [8, 28]: 98
- Bromegrass, Downy plant response rating ([9]; postemergence, 0-100 scale): 80
- Plant response rating, Bromegrass, Downy [9, 16]: 90
- Plant response rating, Bromegrass, Downy [9, 25]: 98
- Plant response rating, Bromegrass, Downy [9, 18]: 98
- Plant response rating, Bromegrass, Downy [9, 19]: 90
- Plant response rating, Bromegrass, Downy [9, 26]: 95
- Plant response rating, Bromegrass, Downy [9, 27]: 95
- Bromegrass, Downy plant response rating ([9]; Preemergence, scale 0 to 100): 0
- Pigweed plant response rating [10, 15]: 0
- Pigweed plant response rating [10, 29]: 0
- Plant response rating, Pigweed [10, 25]: 0
- Plant response rating, Pigweed [10, 18]: 0
- Plant response rating, Pigweed [10, 26]: 0
- Plant response rating, Pigweed [10, 27]: 0
- Pigweed plant response rating [10, 22]: 0
- Pigweed plant response rating [10, 28]: 0
- Ryegrass, Italian plant response rating [11, 15]: 100
- Ryegrass, Italian plant response rating [11, 29]: 100
- Plant response rating, Ryegrass, Italian [11, 25]: 100
- Plant response rating, Ryegrass, Italian [11, 18]: 100
- Plant response rating, Ryegrass, Italian [11, 26]: 100
- Plant response rating, Ryegrass, Italian [11, 27]: 100
- Ryegrass, Italian plant response rating [11, 22]: 85
- Ryegrass, Italian plant response rating [11, 28]: 100
- Surinam Grass plant response rating [12, 15]: 100
- Surinam Grass plant response rating [12, 29]: 100
- Plant response rating, Surinam Grass [12, 25]: 100
- Plant response rating, Surinam Grass [12, 18]: 100
- Plant response rating, Surinam Grass [12, 26]: 100
- Plant response rating, Surinam Grass [12, 27]: 100
- Surinam Grass plant response rating [12, 22]: 85
- Surinam Grass plant response rating [12, 28]: 100
- Plant response rating, Galium [13, 30]: 0
- Plant response rating, Galium [13, 31]: 0
- Galium plant response rating ([13]; scale 0 to 100): 0
- Plant response rating, Sunflower [14, 30]: 0
- Plant response rating, Sunflower [14, 31]: 0
- Sunflower plant response rating ([14]; 8 g ai/ha, scale 0 to 100): 0
- Sunflower plant response rating ([14]; 16 g ai/ha, scale 0 to 100): 0
